Test [1] addresses IL-23 mediated phospho-STAT3 formation in DB cells (Homo sapiens, UniProt Q5VWK5). In words: Functional inhibition of IL-23 mediated STAT3 signalling (phospho-STAT3 Tyr705 MSD) in DB cells. Type of test: cell-based. The text has this: Functional Inhibition of IL-23 Mediated STAT3 Signalling by Compounds
Upon binding of IL-23, the IL-23R forms a heterodimer signalling complex together with IL-12R β1, which through the JAK2/STAT3 pathway promotes phosphorylation of STAT3 to form phospho-STAT3.
The assay was used to quantify the functional antagonism of a compound and to rank order the inhibitor compounds according to their potency. For compounds tested in this assay, the response was normalized relative to control values to calculate the IC50 and maximal inhibitory response from a concentration response curve of the compound in presence of a fixed concentration of human IL-23.
The assay procedure was as follows. […] Following preincubation of the DB cells with inhibitor for 15 min in a cell incubator (37° C., 5% CO2), 20 μL of the prepared 3× the EC80 of hIL-23 solution was added to each well and incubated for 90 min in a cell incubator (37° C., 5% CO2). For some wells buffer only or IL-23 only corresponding to the EC80 was added to obtain readouts needed for normalization. To terminate the assay, the plate was spun at 1000 G for 5 min to pellet cells, the supernatant removed using an 8-channel manual pipette, and then added 50 μL/well Complete Lysis Buffer from the MSD STAT3 kit (Cat #K150SVD, Mesoscale) to the cell pellet. To completely lyse cells to release phospho-STAT3 for detection, the plate was shaken for 10 min at room temperature (500 rpm) sealed with aluminum foil and placed at −80° C. for a minimum of 15 min. Detection of the phospho-STAT3 level in the cell lysate from the individual wells was determined using the MSD STAT3 kit (Cat #K150SVD, Mesoscale) and read on a Meso QuickPlex SQ 120 plate reader (Mesoscale).
For data analysis raw data counts from the Meso QuickPlex SQ 120 plate reader were normalized relative to the response by the EC80 of hIL-23 alone (no compound added) and the buffer level. Compound potency (IC50) and maximal inhibitory response (% inhibition) were estimated by computer-aided curve fitting using a 4-parameter logistic (4PL) non-linear model.

The target of test [2] is T1, human IL-23R (Homo sapiens, UniProt Q5VWK5).
T1 construct: UniProtKB—Q5VWK5, amino acids 22-629; secretion signal of the plasmid (Promega N1371); expressed in transfected cells
T1 sequence (Q5VWK5 22-629): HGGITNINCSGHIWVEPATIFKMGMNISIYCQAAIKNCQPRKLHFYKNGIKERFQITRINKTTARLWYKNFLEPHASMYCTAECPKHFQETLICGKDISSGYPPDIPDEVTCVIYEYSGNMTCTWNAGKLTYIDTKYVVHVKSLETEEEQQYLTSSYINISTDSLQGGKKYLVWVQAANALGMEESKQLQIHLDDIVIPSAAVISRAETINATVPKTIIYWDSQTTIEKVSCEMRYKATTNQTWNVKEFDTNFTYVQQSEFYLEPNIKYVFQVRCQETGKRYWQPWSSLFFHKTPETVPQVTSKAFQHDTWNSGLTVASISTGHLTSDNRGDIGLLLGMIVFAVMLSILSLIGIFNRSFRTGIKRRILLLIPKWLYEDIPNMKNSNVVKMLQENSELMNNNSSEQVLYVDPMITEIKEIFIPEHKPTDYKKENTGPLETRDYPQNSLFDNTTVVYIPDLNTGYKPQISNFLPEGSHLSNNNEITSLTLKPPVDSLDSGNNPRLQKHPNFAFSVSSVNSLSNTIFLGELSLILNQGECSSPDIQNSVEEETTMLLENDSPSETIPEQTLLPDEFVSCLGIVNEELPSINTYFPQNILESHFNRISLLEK
Put plainly: Binding assay (NanoBRET displacement of fluorophore-labelled reference compound) for estimating binding affinity to human IL-23R.

[3] abbreviates: Table 3-1, DB cells, read-out: IC50 (pSTAT3).
The mark [4] stands for this setting: Table 3-1, read-out: Ki hIL-23R.

Each structure is given as a SMILES string. pIC50, pKi: −log10 of the molar value. Read-outs that look alike come from different tables or passages of the source. *1 amine or outer side, *2 acyl side, *3 side chain or, on linkers, in order; H or OH if unused. Where a SMILES comes first, the peptide text is derived from it. Bridges are numbered along the chain shown (N, C = ends). [ ]: non-standard residue; d: D form. Bip = N[C@@H](Cc1ccc(-c2ccccc2)cc1)C(=O)O; 2Nal = N[C@@H](Cc1ccc2ccccc2c1)C(=O)O; αMeL = CC(C)C[C@](C)(N)C(=O)O; CH2COCH2 = O=C(C[*:1])C[*:2]

In general, pIC50 refers to the negative decadic logarithm of the IC50, by convention in mol/L. In general, pKi refers to the negative decadic logarithm of the Ki, by convention in mol/L.

For `CC(=O)N[C@@H](CC(=O)O)C(=O)N[C@H]1CCCCNC(=O)CC[C@@H](C(=O)N[C@@H](CCCNC(=N)N)C(N)=O)NC(=O)[C@H](CC(C)C)NC(=O)[C@H](Cc2ccc3ccccc3c2)NC(=O)[C@H](Cc2c[nH]c3ccccc23)NC(=O)[C@@H]2CSCC(=O)CSC[C@H](NC(=O)[C@H](CO)NC1=O)C(=O)N[C@@H](Cc1c[nH]c3ccccc13)C(=O)N[C@@H](CCC(N)=O)C(=O)N2` [Compound 19, [Ac]-DK(1c)SC(2a)WQC(2a)W[2-Nal]LE(1c)R-[NH2]] (HELM PEPTIDE1{[ac].D.K.S.C.W.Q.C.W.[O=C([C@H](Cc1ccc2ccccc2c1)N[*:1])[*:2]].L.E.R.[am]}|CHEM1{[O=C(C[*:1])C[*:2]]}$PEPTIDE1,PEPTIDE1,3:R3-12:R3|PEPTIDE1,CHEM1,5:R3-1:R1|PEPTIDE1,CHEM1,8:R3-1:R2$$$V2.0), the pIC50 in test [1] (Table 2-6b, DB cells, read-out: IC50 (pSTAT3)) was 7.49. In addition, in test [2] (Table 2-6b, read-out: Ki IL-23R), the pKi was 8.20.
In the case of `CC(C)C[C@@H]1NC(=O)[C@H](Cc2c[nH]c3ccccc23)NC(=O)[C@H](Cc2c[nH]c3ccccc23)NC(=O)[C@H](Cc2ccc(O)cc2)NC(=O)[C@H](CCC(N)=O)NC(=O)[C@H](Cc2c[nH]c3ccccc23)NC(=O)[C@H]([C@@H](C)O)NC(=O)[C@H](CO)NC(=O)[C@@H](NC(=O)[C@@H](N)CC(=O)O)CCC(=O)NCCCC[C@@H](C(=O)N[C@@H](CCCNC(=N)N)C(N)=O)NC1=O` [Ref 3, reference compound] (HELM PEPTIDE1{D.E.S.T.W.Q.Y.W.W.L.K.R.[am]}$PEPTIDE1,PEPTIDE1,2:R3-11:R3$$$V2.0), in test [1] (setting [3]), the negative-log IC50 (pIC50) was < 6.00. Further, the pKi in test [2] (setting [4]) was < 6.00.
Consider `CC(=O)N[C@H]1CCCCNC(=O)CC[C@@H](C(=O)N[C@@H](CCCNC(=N)N)C(N)=O)NC(=O)[C@H](CC(C)C)NC(=O)[C@H](Cc2ccc3ccccc3c2)NC(=O)[C@H](Cc2c[nH]c3ccccc23)NC(=O)[C@@H]2CSCC(=O)CSC[C@H](NC(=O)[C@H](CO)NC1=O)C(=O)N[C@@H](Cc1ccc(-c3ccccc3)cc1)C(=O)N[C@@H](CCC(N)=O)C(=O)N2` [Compound 26, [Ac]-K(1c)SC(2a)[Bip]QC(2a)W[2-Nal]LE(1c)R-[NH2]] (Ac-KSC[Bip]QCW[2Nal]LER-NH2; lactam 1-10; linker 3-6 via CH2COCH2), for which the negative logarithm of the IC50 (pIC50) in test [1] (setting [3]) is < 6.00. The pKi in test [2] (setting [4]) was < 6.00.
Take `CC(=O)N[C@@H](CC(=O)O)C(=O)N[C@H]1CSCC(=O)CSC[C@@H](C(=O)N[C@@H](CCCNC(=N)N)C(N)=O)NC(=O)[C@](C)(CC(C)C)NC(=O)[C@H](Cc2c[nH]c3ccccc23)NC(=O)[C@H](Cc2ccc3ccccc3c2)NC(=O)[C@@H]2CSCC(=O)CSC[C@H](NC(=O)[C@H](CCC(N)=O)NC1=O)C(=O)N[C@@H](Cc1c[nH]c3ccccc13)C(=O)N[C@@H](CCC(N)=O)C(=O)N2` [Compound 62, [Ac]-DC(1a)QC(2a)WQC(2a)[2-Nal]W[2-Me-Leu]C(1a)R-[NH2]] (Ac-DCQCWQC[2Nal]W[αMeL]CR-NH2; linker 2-11, 4-7 via CH2COCH2): the negative logarithm of the IC50 (pIC50) in test [1] is < 6.00. Besides, in test [2], the pKi is < 6.00.
For `CC(C)C[C@@H]1NC(=O)[C@H](Cc2c[nH]c3ccccc23)NC(=O)[C@H](Cc2c[nH]c3ccccc23)NC(=O)[C@H](CO)NC(=O)[C@H](CCC(N)=O)NC(=O)[C@H](Cc2c[nH]c3ccccc23)NC(=O)[C@H](CO)NC(=O)[C@H](CO)NC(=O)[C@@H](NC(=O)[C@@H](N)CC(=O)O)CCC(=O)NCCCC[C@@H](C(=O)N[C@@H](CCCNC(=N)N)C(N)=O)NC1=O` [Ref 2, reference compound] (HELM PEPTIDE1{D.E.S.S.W.Q.S.W.W.L.K.R.[am]}$PEPTIDE1,PEPTIDE1,2:R3-11:R3$$$V2.0), in test [1] (setting [3]), the negative-log IC50 (pIC50) is < 6.00. Further, the negative logarithm of the Ki (pKi) in test [2] (setting [4]) was < 6.00.
As to `CC(C)C[C@@H]1NC(=O)[C@H](Cc2c[nH]c3ccccc23)NC(=O)[C@H](Cc2c[nH]c3ccccc23)NC(=O)[C@@H]2CCCCNC(=O)CC[C@H](NC(=O)[C@H](CO)NC(=O)[C@@H](NC(=O)[C@@H](N)CC(=O)O)CSCC(=O)CSC[C@@H](C(=O)N[C@@H](CCCNC(=N)N)C(N)=O)NC1=O)C(=O)N[C@@H](Cc1c[nH]c3ccccc13)C(=O)N[C@@H](CCC(N)=O)C(=O)N2` [Compound 5, H-DC(1a)SE(2c)WQK(2c)WWLC(1a)R-[NH2]] (HELM PEPTIDE1{D.C.S.E.W.Q.K.W.W.L.C.R.[am]}|CHEM1{[O=C(C[*:1])C[*:2]]}$PEPTIDE1,CHEM1,2:R3-1:R1|PEPTIDE1,CHEM1,11:R3-1:R2|PEPTIDE1,PEPTIDE1,4:R3-7:R3$$$V2.0), the pIC50 in test [1] (setting [3]) is < 6.00. Also, the negative-log Ki (pKi) in test [2] (setting [4]) is < 6.00.
On to `CC(C)C[C@@H]1NC(=O)[C@H](Cc2c[nH]c3ccccc23)NC(=O)[C@H](Cc2c[nH]c3ccccc23)NC(=O)[C@@H]2CSCC(=O)CSC[C@H](NC(=O)[C@H](CO)NC(=O)[C@H](CC(=O)O)NC(=O)[C@H](CCCNC(=N)N)NC1=O)C(=O)N[C@@H](Cc1c[nH]c3ccccc13)C(=O)N[C@@H](CCC(N)=O)C(=O)N2` [Compound 6, D(1c)*SC(2a)WQC(2a)WWLR(1c)*] (HELM PEPTIDE1{C.W.Q.C.W.W.L.R.D.S}|CHEM1{[O=C(C[*:1])C[*:2]]}$PEPTIDE1,CHEM1,1:R3-1:R1|PEPTIDE1,CHEM1,4:R3-1:R2|PEPTIDE1,PEPTIDE1,1:R1-10:R2$$$V2.0), for which the pIC50 in test [1] (setting [3]) was < 6.00. Further, the pKi in test [2] (setting [4]) is < 6.00.
`CC(=O)N[C@H]1CCC(=O)NCCCC[C@@H](C(=O)N[C@@H](CCCNC(=N)N)C(N)=O)NC(=O)[C@H](CC(C)C)NC(=O)[C@H](Cc2c[nH]c3ccccc23)NC(=O)[C@H](Cc2c[nH]c3ccccc23)NC(=O)[C@@H]2CSCC(=O)CSC[C@H](NC(=O)[C@H](CO)NC1=O)C(=O)N[C@@H](Cc1c[nH]c3ccccc13)C(=O)N[C@@H](CCC(N)=O)C(=O)N2` [Compound 10, [Ac]-E(1c)SC(2a)WQC(2a)WWLK(1c)R-[NH2]] (HELM PEPTIDE1{[ac].E.S.C.W.Q.C.W.W.L.K.R.[am]}|CHEM1{[O=C(C[*:1])C[*:2]]}$PEPTIDE1,PEPTIDE1,2:R3-11:R3|PEPTIDE1,CHEM1,4:R3-1:R1|PEPTIDE1,CHEM1,7:R3-1:R2$$$V2.0): the pIC50 in test [1] (Table 2-4b, DB cells, read-out: IC50 (pSTAT3)) was 6.21. Moreover, the pKi in test [2] (Table 2-4b, read-out: Ki IL-23R) was 7.00.
For the molecule `CC(=O)N[C@@H](CC(=O)O)C(=O)N[C@H]1CCC(=O)NCCCC[C@@H](C(=O)N[C@@H](CCCNC(=N)N)C(N)=O)NC(=O)[C@H](CC(C)C)NC(=O)[C@H](Cc2c[nH]c3ccccc23)NC(=O)[C@H](C)NC(=O)[C@@H]2CSCC(=O)CSC[C@H](NC(=O)[C@H](CO)NC1=O)C(=O)N[C@@H](Cc1c[nH]c3ccccc13)C(=O)N[C@@H](CCC(N)=O)C(=O)N2` [Compound 14, [Ac]-DE(1c)SC(2a)WQC(2a)AWLK(1c)R-[NH2]] (HELM PEPTIDE1{[ac].D.E.S.C.W.Q.C.A.W.L.K.R.[am]}|CHEM1{[O=C(C[*:1])C[*:2]]}$PEPTIDE1,PEPTIDE1,3:R3-12:R3|PEPTIDE1,CHEM1,5:R3-1:R1|PEPTIDE1,CHEM1,8:R3-1:R2$$$V2.0), the negative-log IC50 (pIC50) in test [1] (setting [3]) was < 6.00. For the same molecule, the pKi in test [2] (setting [4]) was < 6.00.
In the case of `CC(=O)N[C@@H](CC(=O)O)C(=O)N[C@H]1CSCC(=O)CSC[C@@H](C(=O)N[C@@H](CCCNC(=N)N)C(N)=O)NC(=O)[C@](C)(CC(C)C)NC(=O)[C@H](Cc2c[nH]c3ccccc23)NC(=O)[C@H](Cc2ccc(O)cc2)NC(=O)[C@@H]2CSCC(=O)CSC[C@H](NC(=O)[C@H](CCC(N)=O)NC1=O)C(=O)N[C@@H](Cc1c[nH]c3ccccc13)C(=O)N[C@@H](CCC(N)=O)C(=O)N2` [Compound 63, [Ac]-DC(1a)QC(2a)WQC(2a)YW[2-Me-Leu]C(1a)R-[NH2]] (Ac-DCQCWQCYW[αMeL]CR-NH2; linker 2-11, 4-7 via CH2COCH2), the negative-log IC50 (pIC50) in test [1] is < 6.00. In test [2], the pKi is < 6.00.

The record behind these values is US20250154198A1, “PEPTIDE INHIBITORS OF INTERLEUKIN-23 RECEPTOR” (Zealand Pharma A/S, priority 2021, published 2025).
